Measured values taken from patent US10954305B2 (Immunomedics, Inc., priority 2016, dated 2021).

Tests used:
BxPC-3 = assay: dsDNA breaks, γH2AX flow cytometry; type: cell-based, human; details: 20 μg/ml for 30 min
Protocol: For drug activity testing, BxPC-3 cells were seeded in 6-well plates at 5×10^5 cells/well and held at 37° C. overnight. […] The following morning, cells were trypsinized briefly, spun down, stained with Fixable Viability Stain 450 (BD Biosciences, San Jose, Calif.), washed with 1% BSA-PBS, and then fixed in 4% formalin for 15 min, washed again and permeabilized in 0.15% Triton-X100 in PBS for another 15 min. After washing twice with 1% BSA-PBS, cells were incubated with mouse anti-γH2AX-AF488 (EMD Millipore Corporation, Temecula, Calif.) for 45 min at 4° C. The signal intensity of γH2AX was measured by flow cytometry using a BD FACSCanto (BD Biosciences, San Jose, Calif.).

MDA-MB-468 = assay: ADCC, LDH-release assay; type: cell-based, human; details: 33.3 nM, E:T 50:1
Protocol: Briefly, target cells (MDA-MB-468, NIH:OVCAR-3, or BxPC-3) were plated at 1×10^4 cells/well in a 96-well, black, flat-bottom plate and incubated overnight. The next day, peripheral blood mononuclear effector cells (PBMCs) were freshly isolated from a donor and added to assigned wells on the reaction plate at an E:T ratio of 50:1. Acquisition of human PBMCs was done under the approval of the New England Institutional Review Board (Newton, Mass.). Test reagents were added to their assigned wells at a final concentration of 33.3 nM. One set of wells received ADCC assay medium alone for background control and another set of wells received cells alone plus TritonX100 for maximum cells lysis control. The plate was incubated for 4 h at 37° C. After 4 h, target cell lysis was assessed by a homogenous fluorometric LDH release assay (Cyto Tox-One Homogenous Membrane Integrity Assay; Promega, Cat. G7891).
The plates were read (544 nm-590 nm) using an Envision plate reader (PerkinElmer LAS, Inc.; Shelton, Conn.). Data were analyzed by Microsoft Excel. Percent specific lysis was calculated as follows: […]

[1] = mouse, in vivo, iv, 200 ug
Text: ELISA was utilized to determine serum concentrations of total hRS7 IgG by competing for the binding to an anti-hRS7 IgG idiotype antibody with a horseradish peroxidase conjugate of hRS7. […] Pharmacokinetic (PK) parameters were computed by noncompartmental analysis using Phoenix WinNonlin software (version 6.3; Pharsight Corp., Mountainview, Calif.).

Capan-1 xenografts = assay: combined radioimmunotherapy and ADC, Capan-1 xenograft; type: in vivo, nude mice
Text: The present study examined combinations of ^90Y-hPAM4 IgG with RS7-SN-38 in nude mice bearing 0.35 cm^3 subcutaneous xenografts of the human pancreatic cancer cell line, Capan-1. […] These studies provide the first evidence that combined radioimmunotherapy and ADC enhances efficacy at safe doses.

[2] = biological target: T1, Trop-2 on multiple cell lines (Homo sapiens, UniProt P09758); assay: in vitro cell binding
T1 construct: endogenous in cells; host or cells: human solid tumour cell lines
T1 sequence (P09758 27-323): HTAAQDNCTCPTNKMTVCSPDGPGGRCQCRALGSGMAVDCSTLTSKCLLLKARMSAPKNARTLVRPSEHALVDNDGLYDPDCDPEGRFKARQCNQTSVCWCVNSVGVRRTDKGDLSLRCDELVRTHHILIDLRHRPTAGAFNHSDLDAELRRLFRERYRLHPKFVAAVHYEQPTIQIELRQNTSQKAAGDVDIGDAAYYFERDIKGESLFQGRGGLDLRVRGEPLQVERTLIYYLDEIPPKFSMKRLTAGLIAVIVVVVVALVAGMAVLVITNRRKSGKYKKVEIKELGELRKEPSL
Protocol: LumiGLO Chemiluminescent Substrate System (KPL, Gaithersberg, Md.) was used to detect antibody binding to cells. Briefly, cells were plated into a 96 black-well, flat-clear-bottom plate overnight. Antibodies were serially diluted 1:2 and added in triplicate, yielding a concentration range from 0.03 to 66.7 nM. After incubating for 1 h at 4° C., the media was removed and the cells washed with fresh cold media followed by the addition of a 1:20,000 dilution of goat-antihuman horseradish peroxidase-conjugated secondary antibody (Jackson Immunoresearch, West Grove, Pa.) for 1 h at 4° C. The plates were again washed before the addition of the LumiGLO reagent. Plates were read for luminescence using an Envision plate reader (Perkin Elmer, Boston Mass.). Data were analyzed by non-linear regression to determine the equilibrium dissociation constant (KD). Statistical comparisons of KD-values were made with Prism GraphPad Software (v4.03) (Advanced Graphics Software, Inc.; Encinitas, Calif.) using an F-Test on the best-fit curves for the data. Significance was set at P<0.05.

p53 in BxPC-3 and Calu-3 = assay: p53 expression; type: cell-based, human
Protocol: In addition, p53 expression in cells exposed to the ADC was higher in both cell lines compared to SN-38 (not shown). […] In terms of later apoptotic events, cleavage of PARP was evident in both cell lines when incubated with either SN-38 or the conjugate (not shown). […] The higher degree of cleavage with free SN-38 over the ADC was consistent with the cytotoxicity findings.

[3] = system: p21^WAF1/Cip1 in MDA-MB-468; assay: immunoblotting of apoptotic pathway; type: cell-based, human; details: by 48 h
Protocol: Cells (2×10^6) were plated in 6-well plates overnight. […] Parental hRS7 was used as a control for the ADC.

| Substance | Mean Fluorescence Intensity (γH2AX) (BxPC-3) | specific lysis (MDA-MB-468) [%] | MRT, carrier hRS7 antibody [1] [h] | alpha half-life, hRS7 IgG [1] | beta half-life, hRS7 IgG [1] [h] | half-life, intact conjugate [1] [h] | mice tumor-free after 20 weeks (Capan-1 xenografts; ADC alone) | KD [2] | time to upregulation of p53 (p53 in BxPC-3 and Calu-3) [h] | decrease of p21^WAF1/Cip1 [3] [%] | Percent Positive (γH2AX) (BxPC-3) [%] | anti-tumor activity of unconjugated antibody (Capan-1 xenografts; given alone) |
| --- | --- | --- | --- | --- | --- | --- | --- | --- | --- | --- | --- | --- |
| IMMU-132 | 5349 ± 234 | 8.6±2.6 | ~300 | approximately 3 h | ~200 | 11 | 1 of 10 | in the sub-nanomolar range | ≤ 24 | 43 |  |  |
| hRS7 IgG | 2297 ± 18 | 29.8±2.6 |  | approximately 3 h | ~200 |  |  | in the sub-nanomolar range | 48 |  | 13.0 ± 0.6 | Neither unconjugated hPAM4 nor hRS7 antibodies had anti-tumor activity when given alone |
